In the supplement of paper PMC3493320:

Each compound was assayed on NCI-H295R (assay: IC50 (antiproliferative, ATP content)). Conditions: 48 h.
Summary of the method: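 In 1536-well plates, 1500 adrenocortical carcinoma cells per well were grown overnight in serum-free, ITS-supplemented DMEM before compounds were pin-transferred at 8 final concentrations (0.6 nM to 46 µM). After 48 h at 37 °C and 5% CO2, CellTiter-Glo luminescence was read following 20 min at room temperature and normalised to vehicle and positive-control wells. IC50 values came from logistic curve fits, with compounds lacking any concentration response listed as above the top dose.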
`Cc1ncc([N+](=O)[O-])n1CCO` was tested, and the IC50 was over 46 µM.
For `CC(=O)N[C@@H](Cc1ccc(O)cc1)C(=O)O`, the IC50 was over 46 µM.
In the case of `Nc1ccc(S(=O)(=O)Nc2nccs2)cc1`, the IC50 is reported as over 46 µM.
For `CCCCOCCOCCOCc1cc2c(cc1CCC)OCO2`, the IC50 was over 46 µM.
In the case of `Br.CN1[C@@H]2C[C@@H](OC(=O)[C@H](CO)c3ccccc3)C[C@H]1[C@@H]1O[C@@H]12.O.O.O`, the IC50 is reported as over 46 µM.
`CCC(=O)Nc1ccc(O)cc1` gave an IC50 of over 46 µM.
In the case of `CCOP(=O)(OCC)OC(=CCl)c1ccc(Cl)cc1Cl`, the IC50 is reported as over 46 µM.
With `CC12CCC(CC1)C(C)(C)O2` the IC50 was over 46 µM.
Work on `O=P(CC(N2C[C@H]([C@H]3CCCCC3)C[C@H]2[C@@](O)=O)=O)(OC(OC(CC)=O)C(C)C)CCCCC1=CC=CC=C1` (some centres not stated) yielded an IC50 of over 46 µM.
Compound `O=C(O)CCCCC1CCSS1` (configuration not stated) has an IC50 of over 46 µM.
Compound `CC(CNC1CCCCC1)OC(=O)c1ccccc1.Cl` (configuration not stated) has an IC50 of over 46 µM.
`C[C@@H]1CC[C@@]2(OC1)O[C@H]1C[C@H]3[C@@H]4CC[C@H]5C[C@@H](O)CC[C@]5(C)[C@H]4CC(=O)[C@]3(C)[C@H]1[C@@H]2C` showed an IC50 of over 46 µM.
`N#Cc1ccc2c(c1)N(CCCN1CCC(O)CC1)c1ccccc1S2` gave an IC50 of over 46 µM.
With `O=C1c2c(O)cccc2[C@H]([C@@H]2O[C@H](CO)[C@@H](O)[C@H](O)[C@H]2O)c2cc(CO)cc(O)c21` the IC50 was over 46 µM.
`O=c1[nH]cc(N(CCCl)CCCl)c(=O)[nH]1` gave an IC50 of over 46 µM.
Work on `C[N+]1(CCC(C(N)=O)(c2ccccc2)c2ccccc2)CCCCC1.[Br-]` yielded an IC50 of over 46 µM.
In the case of `Cc1cnc(C(=O)NCCc2ccc(S(=O)(=O)NC(=O)NC3CCCCC3)cc2)cn1`, the IC50 is reported as over 46 µM.
`CCC(C)[C@@H](N)C(=O)O` (some centres not stated) showed an IC50 of over 46 µM.
Work on `NS(=O)(=O)c1ccc(Cl)c(S(N)(=O)=O)c1` yielded an IC50 of over 46 µM.
In the case of `CO[C@H]1/C=C/O[C@@]2(C)Oc3c(C)c(O)c4c(O)c(c5c(nc6cc(C)ccn65)c4c3C2=O)NC(=O)/C(C)=C\C=C\[C@H](C)[C@H](O)[C@@H](C)[C@@H](O)[C@@H](C)[C@H](OC(C)=O)[C@@H]1C`, the IC50 is reported as over 46 µM.
`COC(c1ccccc1)(c1ccccc1)[C@H](Oc1nc(C)cc(C)n1)C(=O)O` gave an IC50 of over 46 µM.
In the case of `CCOC(=O)[C@H](CCc1ccccc1)N[C@@H](C)C(=O)N1Cc2ccccc2C[C@H]1C(=O)O.Cl`, the IC50 is reported as over 46 µM.
Work on `N=C(N)NCCN1CCCCCCC1.O=S(=O)(O)O.O=S(=O)(O)O` yielded an IC50 of over 46 µM.
`O=C([C@H]3N[C@H]([C@](OCC)=O)CCC2=CC=CC=C2)N(CC(O)=O)C[C@H](SC3)[C@@]1=CC=CS1.Cl` was tested, and the IC50 was over 46 µM.
In the case of `CCCCC(=O)O[C@]1(C(=O)CO)CC[C@H]2[C@@H]3CCC4=CC(=O)CC[C@]4(C)[C@H]3[C@@H](O)C[C@@]21C`, the IC50 is reported as over 46 µM.
Work on `Cc1ccsc1/C=C/C1=NCCCN1C.O=C(O)[C@@H](O)[C@H](O)C(=O)O` yielded an IC50 of over 46 µM.
Work on `CC(C)(C)c1ccc2c(S(=O)(=O)[O-])c(C(C)(C)C)ccc2c1.[Na+]` yielded an IC50 of over 46 µM.
Compound `CCC(C)C(N)C(=O)O` (configuration not stated) has an IC50 of over 46 µM.
`CNCC(O)c1ccc(OC(=O)C(C)(C)C)c(OC(=O)C(C)(C)C)c1.Cl` (configuration not stated) was tested, and the IC50 was over 46 µM.
`CCCN(CCC)S(=O)(=O)c1ccc(C(=O)O)cc1` showed an IC50 of over 46 µM.
For `CCC1(CC)C(=O)NC(=O)NC1=O`, the IC50 was over 46 µM.
Compound `COc1cc(O)c(C(=O)c2ccccc2)cc1S(=O)(=O)O` has an IC50 of over 46 µM.
`O=C([O-])c1ccc(NC(=O)[C@H](Cc2ccc(O)cc2)NC(=O)c2ccccc2)cc1.[Na+]` showed an IC50 of over 46 µM.
`O=C([O-])c1cc(O)c2c3nc4ccccc4oc-3cc(=O)c2n1.[Na+]` showed an IC50 of over 46 µM.
With `CC(=O)N[C@@H]([C@@H](O)[C@H](O)[C@H](O)CO)[C@@H](O)CC(=O)C(=O)O` the IC50 was over 46 µM.
With `COCCOC(=O)C1=C(C)NC(C)=C(C(=O)OC(C)C)C1c1cccc([N+](=O)[O-])c1` (configuration not stated) the IC50 was over 46 µM.
`O=C1c2ccccc2C(=O)C1c1ccc(Cl)cc1` was tested, and the IC50 was over 46 µM.
`CC(=O)Nc1ccc(OC(=O)c2ccccc2OC(C)=O)cc1` was tested, and the IC50 was over 46 µM.
`O=[C@@]([C@@H]2CC[C@@H](CN)CC2)OC1=CC=C(CCC(O)=O)C=C1.Cl` gave an IC50 of over 46 µM.
Work on `CCCCCC(C=O)=Cc1ccccc1` yielded an IC50 of over 46 µM.
`COc1ccc(OC)c(C(O)CNC(=O)CN)c1.Cl` (configuration not stated) gave an IC50 of over 46 µM.
In the case of `O=C(O)CCC(=O)c1ccc(-c2ccccc2)cc1`, the IC50 is reported as over 46 µM.
With `O=C(O)c1ccccc1Nc1cccc(C(F)(F)F)c1` the IC50 was over 46 µM.
With `CN1CC(=O)N2[C@H](c3ccc4c(c3)OCO4)c3[nH]c4ccccc4c3C[C@@H]2C1=O` the IC50 was over 46 µM.
For `N=C(N)NCC1COc2ccccc2O1` (configuration not stated), the IC50 was over 46 µM.
Work on `CCN(CC)CCNC(=O)c1cc(Cl)c(N)cc1OC` yielded an IC50 of over 46 µM.
In the case of `Cl.C/C(C)=N\Nc2c(cnc1c2cnn1CC)C(=O)OCC`, the IC50 is reported as over 46 µM.
`CCCN(CCC)C(=O)C(CCC(=O)O)NC(=O)c1ccccc1` (configuration not stated) showed an IC50 of over 46 µM.
`O=C(NCCCN1CCOCC1)c1ccc(Cl)cc1` gave an IC50 of over 46 µM.
For `Nc1nc2ccc(OC(F)(F)F)cc2s1`, the IC50 was over 46 µM.
For `CCCCC[C@H](O)/C=C/[C@@H]1[C@@H](C/C=C\CCCC(=O)O)[C@@H](O)C[C@H]1O.COC(N)(CO)CO`, the IC50 was over 46 µM.
Work on `CC(C(=O)O)c1ccc(-c2ccccc2)c(F)c1` (configuration not stated) yielded an IC50 of over 46 µM.
In the case of `Cl.OC(CCN1CCCCC1)(c1ccccc1)C1CC2C=CC1C2` (configuration not stated), the IC50 is reported as over 46 µM.
Compound `C=C(C)C1CC=C(C)CC1` (configuration not stated) has an IC50 of over 46 µM.
`c1ccc2c(c1)sc1ccccc12` was tested, and the IC50 was over 46 µM.
`CNC[C@H](O)[C@@H](O)[C@H](O)[C@H](O)CO` was tested, and the IC50 was over 46 µM.
With `CN1[C@@H]2CC[C@H]1C[C@@H](OC(c1ccccc1)c1ccccc1)C2.CS(=O)(=O)O` the IC50 was over 46 µM.
`CCC(=O)[C@@]1(C)[C@H](C)C[C@H]2[C@@H]3CCC4=CC(=O)C=C[C@]4(C)[C@H]3[C@@H](O)C[C@@]21C` showed an IC50 of over 46 µM.
`CC[N+](C)(C)Cc1ccccc1Br.Cc1ccc(S(=O)(=O)[O-])cc1` showed an IC50 of over 46 µM.
With `C[C@@H](CN1CC(=O)NC(=O)C1)N1CC(=O)NC(=O)C1` the IC50 was over 46 µM.
`CCN(CC)CCSC(=O)C(c1ccccc1)c1ccccc1` was tested, and the IC50 was over 46 µM.
Work on `CC(=O)N(CC(C)C(=O)O)c1c(I)cc(I)c(N)c1I` (configuration not stated) yielded an IC50 of over 46 µM.
Compound `CCCCCN(C)CCC(O)(P(=O)([O-])O)P(=O)(O)O.[Na+]` has an IC50 of over 46 µM.
`CCCCCCCCCCCCCCCCCC(=O)O` gave an IC50 of over 46 µM.
In the case of `O=C(C3)C(C(O)=CC(O[C@H]4[C@H](O)[C@@H](O)[C@H](O)[C@@H](CO[C@H]5[C@H](O)[C@H](O)[C@@H](O)[C@H](C)O5)O4)=C2)=C2O[C@@H]3[C@@]1=CC(O)=C(OC)C=C1`, the IC50 is reported as over 46 µM.
In the case of `Cc1nc(NS(=O)(=O)c2ccc(N)cc2)nc(C)c1Br`, the IC50 is reported as over 46 µM.
For `O=C(COc1ccc(Cl)cc1)OCCNC12CC3CC(CC(C3)C1)C2`, the IC50 was over 46 µM.
`c1ccc2sc(SN3CCOCC3)nc2c1` gave an IC50 of over 46 µM.
Work on `CC(C)[C@@H]1CC[C@@H](C)C[C@H]1O` yielded an IC50 of over 46 µM.
Work on `N[C@@H](Cc1ccc(Oc2cc(I)c(O)c(I)c2)c(I)c1)C(=O)O` yielded an IC50 of over 46 µM.
Compound `Cc1cccc(C)c1Nc1ncccc1C(=O)O` has an IC50 of over 46 µM.
With `CCN(CC)CCOC(=O)C(c1ccccc1)c1ccccc1.Cl` the IC50 was over 46 µM.
For `CCN(CC)CCNC(=O)c1ccc(NC(C)=O)cc1.Cl`, the IC50 was over 46 µM.
`CCCCCCCCCCCCCC[n+]1ccc(C)cc1.[Cl-]` showed an IC50 of over 46 µM.
With `O=C(NC(O)C(Cl)(Cl)Cl)NC(O)C(Cl)(Cl)Cl` (configuration not stated) the IC50 was over 46 µM.
`COc1ccc(C=CC(=O)OCCC(C)C)cc1` gave an IC50 of over 46 µM.
`COc1ccccc1N1CCN(CCCC(=O)c2ccc(F)cc2)CC1` showed an IC50 of over 46 µM.
In the case of `C#Cc1cccc(Nc2ncnc3cc(OCCOC)c(OCCOC)cc23)c1`, the IC50 is reported as over 46 µM.
`CCn1cc(C(=O)O)c(=O)c2cc(F)c(N3CCNCC3)cc21` gave an IC50 of over 46 µM.
`CCCCCCCC(=O)OCC(O)CO` (configuration not stated) gave an IC50 of over 46 µM.
Compound `CN1C(C(=O)Nc2ccccn2)=C(O)c2sccc2S1(=O)=O` has an IC50 of over 46 µM.
`CN1C(=O)CCS(=O)(=O)C1c1ccc(Cl)cc1` (configuration not stated) showed an IC50 of over 46 µM.
With `CC(=O)N[C@@H](CC(C)C)C(=O)O` the IC50 was over 46 µM.
`Cn1c(=O)c2c(ncn2CCOC(=O)C(C)(C)Oc2ccc(Cl)cc2)n(C)c1=O` was tested, and the IC50 was over 46 µM.
Compound `Cl.c1cc2c(c(N3CCNCC3)c1)OCCO2` has an IC50 of over 46 µM.
`CCCOC(=O)c1ccc(O)cc1` was tested, and the IC50 was over 46 µM.
With `CC1CCc2cc(F)cc3c(=O)c(C(=O)O)cn1c23` (configuration not stated) the IC50 was over 46 µM.
Compound `C[C@@](Cc1ccc(O)c(O)c1)(NN)C(=O)O` has an IC50 of over 46 µM.
Compound `CCOC(=O)O[C@]1(C(=O)COC(=O)CC)CC[C@H]2[C@@H]3CCC4=CC(=O)C=C[C@]4(C)[C@H]3[C@@H](O)C[C@@]21C` has an IC50 of over 46 µM.
`COc1ccc(CN(CCN(C)C)c2ccccn2)cc1` was tested, and the IC50 was over 46 µM.
For `S=P(N1CC1)(N1CC1)N1CC1`, the IC50 was over 46 µM.
Compound `ClC4=C(Cl)[C@]5(Cl)[C@@]2([H])[C@]([C@](Cl)4[C@](Cl)5Cl)([H])[C@H]3[C@@H]1O[C@@H]1[C@@H]2C3` has an IC50 of over 46 µM.
`CC[C@H](C)C(=O)O[C@H]1C[C@H](O)C=C2C=C[C@H](C)[C@H](CC[C@@H](O)C[C@@H](O)CC(=O)[O-])[C@H]21.[Na+]` was tested, and the IC50 was over 46 µM.
In the case of `O=C1CCc2cc(OCCCCc3nnnn3C3CCCCC3)ccc2N1`, the IC50 is reported as over 46 µM.
With `CCN(CC)CC(=O)Nc1c(C)cccc1C` the IC50 was over 46 µM.
`CN(C)[C@@H]1C(O)=C(C(N)=O)C(=O)[C@@]2(O)C(O)=C3C(=O)c4c(O)ccc(Cl)c4[C@@](C)(O)[C@H]3C[C@@H]12.Cl` gave an IC50 of over 46 µM.
With `C[N@@+]1([O-])[C@@H]2CC[C@H]1C[C@@H](OC(=O)C(CO)c1ccccc1)C2` (some centres not stated) the IC50 was over 46 µM.
For `O=[C@@](OCC2=CC=CC(OC3=CC=CC=C3)=C2)[C@H]1C(C)(C)C1/C=C(C)/C` (some centres not stated), the IC50 was over 46 µM.
In the case of `CO`, the IC50 is reported as over 46 µM.
Compound `CN1C(=O)[C@@H](NC(=O)c2cc3ccccc3[nH]2)N=C(c2ccccc2)c2ccccc21` has an IC50 of over 46 µM.
`Cl.O=C(c1ccc(F)cc1)C1CCN(CCn2c(=S)[nH]c3ccccc3c2=O)CC1` gave an IC50 of over 46 µM.
`C[C@]12CC[C@@H]3c4ccc(OC(=O)c5ccccc5)cc4CC[C@H]3[C@@H]1CC[C@@H]2O` gave an IC50 of over 46 µM.
